Test results reported in US20240262803A1, “COMPOUNDS, COMPOSITIONS AND METHODS OF TREATING DISORDERS” (Chungdu Anticancer Bioscience Ltd, priority 2021, published 2024).
“Also recorded” adds a separate entry of the source. Like-named read-outs stand apart in the source and are kept apart here.

Key:
RPEMYC^H2B-GFP cells [1] = assay: Mechanism-informed phenotypic screening assay (mitotic arrest, polyploidy; GE IN-Cell Analyzer 2000); assay type: cell-based; settings: 20 nM to 20 μM, 24, 48 or 72 hours, read-out: Min. Effective conc. for polyploidy (≥5%)
How it was run: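 RPEMYC^H2B-GFP cells expressing Histone 2B-EGFP were treated with compounds at 20 nM to 20 μM. Mitotic arrest and DNA content were imaged at 24, 48 or 72 h. Minimal effective concentrations eliciting polyploidy are given as letter bins.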

[2] = tested on: lung cancer cell line NCI-H23; assay: MTT assay of cellular proliferation, NCI-H23; assay type: cell-based; settings: Homo sapiens, read-out: EC50: Concentration that inhibits 50% of proliferation
How it was run: (§1)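 EC50 values come from optical density at 570 nm of solubilized MTT formazan, added for 3˜4 h after compound exposure. Cells in DMEM with 5% FBS were treated at 1 nM to 10 μM once 20˜30% confluent.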

[3] = tested on: lung cancer cell line A549; assay: MTT assay of cellular proliferation, A549; assay type: cell-based; settings: Homo sapiens, read-out: EC50: Concentration that inhibits 50% of proliferation
How it was run: as §1

[4] = tested on: colon cancer cell line HCT116; assay: MTT assay of cellular proliferation, HCT116; assay type: cell-based; settings: Homo sapiens, HCT-116, read-out: EC50: Concentration that inhibits 50% of proliferation
How it was run: as §1

[5] = tested on: colon cancer cell line SW460; assay: MTT assay of cellular proliferation, SW460; assay type: cell-based; settings: Homo sapiens, SW480; read-out: EC50: Concentration that inhibits 50% of proliferation
How it was run: as §1

[6] = tested on: breast cancer cell line MDA-MB-231; assay: MTT assay of cellular proliferation, MDA-MB-231; assay type: cell-based; settings: Homo sapiens, read-out: EC50: Concentration that inhibits 50% of proliferation
How it was run: as §1

[7] = tested on: gastric cancer cell line NCI-N87; assay: MTT assay of cellular proliferation, NCI-N87; assay type: cell-based; settings: Homo sapiens, read-out: EC50: Concentration that inhibits 50% of proliferation
How it was run: as §1

[8] = tested on: cervical cancer cell line Hela; assay: MTT assay of cellular proliferation, Hela; assay type: cell-based; settings: Homo sapiens, read-out: EC50: Concentration that inhibits 50% of proliferation
How it was run: as §1

[9] = tested on: liver cancer cell line T2 HCC; assay: MTT assay of cellular proliferation, T2 HCC; assay type: cell-based; settings: Mus musculus, read-out: EC50: Concentration that inhibits 50% of proliferation
How it was run: as §1

[10] = tested on: human lung adenocarcinoma cell line NCI-H23; assay: Xenograft assay, NCI-H23; assay type: in vivo; settings: NCI-H23 subcutaneous xenograft, Nu/Nu mice, oral gavage twice a day for 9 days, FIG. 3
Description: (§2) Xenografts were initiated in immunocompromised (Nu/Nu) mice with the human lung adenocarcinoma cell line NCI-H23 (FIG. 3) and the human colon cancer cell line HCT116 (FIG. 4). Five million cells were injected subcutaneously into each mouse and treatment was initiated when the average tumor volumes reached 150 mm3 (n=5/groups). Tumor-bearing mice were randomized into different groups to receive either vehicle or indicated compounds. The compounds were administered through oral gavage twice a day for 9 days. Day 0 on the x-axis indicates the day that treatment was initiated. For these experiments, all compounds were first dissolved in DMSO and then diluted 1:10 into a mixture containing 50% PEG300 and 49% PBS, 1% Tween 80, pH2.2. 100 ul of drug solution was administered with each dose. Tumor volumes were determined once every three days and are calculated from digital caliper raw data by using the formula: Volume (mm3)=(L×W^2)/2. The value W (Width) is the smaller of two perpendicular tumor axes and the value L (Length) is the larger of two perpendicular axes. Mean tumor volume growth curves and means are calculated for each treatment group.

[11] = tested on: human colon cancer cell line HCT116; assay: Xenograft assay, HCT116; assay type: in vivo; settings: HCT116 subcutaneous xenograft, Nu/Nu mice, oral gavage twice a day for 9 days, FIG. 4
Description: as §2

[12] = tested on: lung cancer cell line NCI-H23; assay: Minimal effective concentration that elicits polyploidy, NCI-H23; assay type: cell-based; settings: Homo sapiens, read-out: MECP: Minimal effective concentration that elicits polyploidy
[13] = tested on: lung cancer cell line A549; assay: Minimal effective concentration that elicits polyploidy, A549; assay type: cell-based; settings: Homo sapiens, read-out: MECP: Minimal effective concentration that elicits polyploidy
[14] = tested on: colon cancer cell line HCT116; assay: Minimal effective concentration that elicits polyploidy, HCT116; assay type: cell-based; settings: Homo sapiens, HCT-116, read-out: MECP: Minimal effective concentration that elicits polyploidy
SW480 = assay: Minimal effective concentration that elicits polyploidy, SW480; assay type: cell-based; settings: Homo sapiens, read-out: MECP: Minimal effective concentration that elicits polyploidy
[15] = tested on: breast cancer cell line MDA-MB-231; assay: Minimal effective concentration that elicits polyploidy, MDA-MB-231; assay type: cell-based; settings: Homo sapiens, read-out: MECP: Minimal effective concentration that elicits polyploidy
[16] = tested on: cervical cancer cell line Hela; assay: Minimal effective concentration that elicits polyploidy, Hela; assay type: cell-based; settings: Homo sapiens, read-out: MECP: Minimal effective concentration that elicits polyploidy
[17] = tested on: gastric cancer cell line NCI-N87; assay: Minimal effective concentration that elicits polyploidy, NCI-N87; assay type: cell-based; settings: Homo sapiens, read-out: MECP: Minimal effective concentration that elicits polyploidy
[18] = tested on: liver cancer cell line T2 HCC; assay: Minimal effective concentration that elicits polyploidy, T2 HCC; assay type: cell-based; settings: Mus musculus, read-out: MECP: Minimal effective concentration that elicits polyploidy
RPEMYC^H2B-GFP cells [19] = assay: Mechanism-informed phenotypic screening assay (mitotic arrest, polyploidy; GE IN-Cell Analyzer 2000); assay type: cell-based; settings: 20 nM to 20 μM, 24, 48 or 72 hours, read-out: Mitotic Arrest (≥5%)
[20] = tested on: lung cancer cell line NCI-H460; assay: MTT assay of cellular proliferation, NCI-H460; assay type: cell-based; settings: Homo sapiens, read-out: EC50: Concentration that inhibits 50% of proliferation
Description: (§3) Six lung cancer cell lines (NCI-H23, NCI-H460, NCI-H596, NCI-H2170, Calu-6 and A549), two colon cancer cell lines (HCT116 and SW460), one breast cancer cell line MDA-MB-231, one gastric cancer cell line NCI-N87, one prostate cancer cell line DU145, one cervical cancer cell line Hela, and one glioblastoma cell line T98G were obtained from ATCC. The T2 HCC cell line was derived from a mouse liver cancer model initiated by a transgene of MYC (Reference). All cell lines were cultured in DMEM (Gibco, Cleveland, TN, USA) supplemented with 5% fetal bovine serum (Gibco), penicillin (100 U/mL)-streptomycin (100 μg/mL) (Gibco, Cat. No. 15140-122), 2 mM L-glutamine (Gibco, 200 mM solution, Cat. No. 25030081), and 1 mM sodium pyruvate (Gibco, 100 mM solution, Cat. No. 11360070) at 37° C. in a humidified incubator that was maintained at 5% CO2.
(§4) The MTT assay measures cellular metabolic activity as a proxy for cell viability and involves the conversion of the water-soluble yellow dye MTT [3-(4,5-dimethylthiazol-2-yl)-2,5-diphenyltetrazolium bromide] into an insoluble purple formazan by the action of mitochondrial reductase. Formazan is then solubilized and its concentration is determined by measuring the optical density (OD) value at a wavelength of 570 nm. The value is in proportional to the number of live cells with excellent linearity up to ˜10^6 cells per well. The MTT assay was used to determine the EC50 value, the concentration of a compound that leads to 50% inhibition of cellular proliferation. Briefly, cells were split when growing to the mid-Log phase. Cells in 100 μL of culture medium were seeded into each well of 96-well microplates and cultivated for 15˜24 hours to reach a confluence of 20˜30% and were then exposed to drugs at concentrations ranging from 1 nM to 10 μM. At the endpoint, 20 μL of a MTT stock solution in DMSO (5 mg/mL) was added to each well that contains […] of DMEM. The microplates were left in the cell culture incubator for 3˜4 h before subjected to solubilization and determination of formazan at A570 in a microplate reader (BioTek ELX808iu). […] Therefore, these compounds might hold a broad utility in the treatment of a large variety of human malignancies.

[21] = tested on: lung cancer cell line NCI-H596; assay: MTT assay of cellular proliferation, NCI-H596; assay type: cell-based; settings: Homo sapiens, read-out: EC50: Concentration that inhibits 50% of proliferation
Description: as §3, §4

[22] = tested on: lung cancer cell line NCI-H2170; assay: MTT assay of cellular proliferation, NCI-H2170; assay type: cell-based; settings: Homo sapiens, read-out: EC50: Concentration that inhibits 50% of proliferation
Description: as §3, §4

[23] = tested on: lung cancer cell line Calu-6; assay: MTT assay of cellular proliferation, Calu-6; assay type: cell-based; settings: Homo sapiens, read-out: EC50: Concentration that inhibits 50% of proliferation
Description: as §3, §4

[24] = tested on: prostate cancer cell line DU145; assay: MTT assay of cellular proliferation, DU145; assay type: cell-based; settings: Homo sapiens, DU-145, read-out: EC50: Concentration that inhibits 50% of proliferation
Description: as §3, §4

[25] = tested on: glioblastoma cell line T98G; assay: MTT assay of cellular proliferation, T98G; assay type: cell-based; settings: Homo sapiens, read-out: EC50: Concentration that inhibits 50% of proliferation
Description: as §3, §4

[26] = tested on: lung cancer cell line NCI-H460; assay: Minimal effective concentration that elicits polyploidy, NCI-H460; assay type: cell-based, human
[27] = tested on: lung cancer cell line NCI-H596; assay: Minimal effective concentration that elicits polyploidy, NCI-H596; assay type: cell-based, human
[28] = tested on: lung cancer cell line NCI-H2170; assay: Minimal effective concentration that elicits polyploidy, NCI-H2170; assay type: cell-based, human
[29] = tested on: glioblastoma cell line T98G; assay: Minimal effective concentration that elicits polyploidy, T98G; assay type: cell-based, human
[30] = tested on: prostate cancer cell line DU145; assay: Minimal effective concentration that elicits polyploidy, DU145; assay type: cell-based, human
[31] = tested on: lung cancer cell line Calu-6; assay: Minimal effective concentration that elicits polyploidy, Calu-6; assay type: cell-based, human

Row | EC50 [2] | EC50 [3] | EC50 [4] | EC50 [5] | EC50 [6] | EC50 [7] | EC50 [8] | EC50 [9] | Compound | minimal effective concentration (RPEMYC^H2B-GFP cells [1]) | tumor growth (tumor volume) [10] | tumor growth (tumor volume) [11] | minimal effective concentration [12] | minimal effective concentration [13] | minimal effective concentration [14] | minimal effective concentration (SW480) | minimal effective concentration [15] | minimal effective concentration [16] | minimal effective concentration [17] | minimal effective concentration [18] | minimal effective concentration (RPEMYC^H2B-GFP cells [19]) | further results
1 | 1 to 1000 nM | 1 to 1000 nM | 1 to 1000 nM | 1 to 1000 nM | 1 to 1000 nM | 1 to 1000 nM | 1 to 1000 nM | 1 to 1000 nM | COc1cc(Oc2ncccc2-c2ccncc2)cc(C(F)(F)F)c1 [Compound 9, 2-(3-methoxy-5-(trifluoromethyl)phenoxy)-3,4′-bipyridine] | 1 µM | suppress the growth; also recorded: suppressing the tumor growth; also recorded: eliciting tumor regression | suppress the growth; also recorded: suppressing the tumor growth; also recorded: eliciting tumor regression | 0.001 to 1 µM | 0.001 to 1 µM | 0.001 to 1 µM | 0.001 to 1 µM | 0.001 to 1 µM | 0.001 to 1 µM | 0.001 to 1 µM | 0.001 to 1 µM | 1 µM | –
2 | 1 to 1000 nM | 1 to 1000 nM | 1 to 1000 nM | 1 to 1000 nM | 1 to 1000 nM | 1 to 1000 nM | 1 to 1000 nM | 1 to 1000 nM | COc1cc(Oc2ncccc2-c2ccncc2)cc(-n2cccn2)c1 [Compound 10, 2-(3-methoxy-5-(1H-pyrazol-1-yl)phenoxy)-3,4′-bipyridine] | 1 µM | suppress the growth; also recorded: suppressing the tumor growth | suppress the growth; also recorded: suppressing the tumor growth | 0.001 to 1 µM | 0.001 to 1 µM | 0.001 to 1 µM | 0.001 to 1 µM | 0.001 to 1 µM | 0.001 to 1 µM | 0.001 to 1 µM | 0.001 to 1 µM | 1 µM | –
3 | 1 to 1000 nM | 1000 to 10000 nM | 1 to 1000 nM | – | 1 to 1000 nM | 1 to 1000 nM | 1 to 1000 nM | 1 to 1000 nM | COc1cc(OC)cc(Oc2ncccc2-c2ccnc(N)n2)c1 [Compound 19, 4-(2-(3,5-dimethoxyphenoxy)pyridin-3-yl)pyrimidin-2-amine] | 1 µM | – | – | 0.001 to 1 µM | 1 to 10 µM | 0.001 to 1 µM | – | 0.001 to 1 µM | 0.001 to 1 µM | 0.001 to 1 µM | 0.001 to 1 µM | 1 µM | EC50 [20]: 1000 to 10000 nM; EC50 [21]: 1 to 1000 nM; EC50 [22]: 1 to 1000 nM; EC50 [23]: 1 to 1000 nM; EC50 [24]: 1000 to 10000 nM; EC50 [25]: 1 to 1000 nM; MECP: Minimal effective concentration that elicits polyploidy [26]: A (A: 1 nM < conc. ≤ 1 μM); MECP: Minimal effective concentration that elicits polyploidy [27]: A (A: 1 nM < conc. ≤ 1 μM); MECP: Minimal effective concentration that elicits polyploidy [28]: A (A: 1 nM < conc. ≤ 1 μM); MECP: Minimal effective concentration that elicits polyploidy [29]: A (A: 1 nM < conc. ≤ 1 μM); MECP: Minimal effective concentration that elicits polyploidy [30]: B (B: 1 μM < conc. ≤ 10 μM); MECP: Minimal effective concentration that elicits polyploidy [31]: A (A: 1 nM < conc. ≤ 1 μM)
4 | 1 to 1000 nM | 1 to 1000 nM | 1 to 1000 nM | 1 to 1000 nM | 1 to 1000 nM | 1 to 1000 nM | 1 to 1000 nM | 1 to 1000 nM | COc1cc(OC)cc(Oc2ncccc2-c2cc(C)ncn2)c1 [Compound 63, 4-(2-(3,5-dimethoxyphenoxy)pyridin-3-yl)-6-methylpyrimidine] | 1 µM | – | – | 0.001 to 1 µM | 0.001 to 1 µM | 0.001 to 1 µM | 0.001 to 1 µM | 0.001 to 1 µM | 0.001 to 1 µM | 0.001 to 1 µM | 0.001 to 1 µM | 1 µM | –
